# Experimental data published in patent US9695155B2, “Herbicidal substituted pyrimidinyloxy benzene compounds” (E. I. DU PONT DE NEMOURS AND COMPANY, priority 2013, dated 2017).
# Assays:
# wheat, winter = assay: Test C preemergence; format: in vivo, Triticum aestivum; conditions: for Wheat plant response rating: preemergence; for Plant response rating, Wheat: Preemergence, 31 g ai/ha, scale 0 to 100, 0 no effect, 100 complete control
# How it was run: (§1)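 Sown in loam/sand → sprayed pre-emergence; or grown to 1–4 leaves in peat mix → sprayed post-emergence. Same solvent/surfactant formulation both ways. Greenhouse 13–15 d. Score 0–100 visual.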
# Italian ryegrass = assay: Test C preemergence; format: in vivo, Lolium multiflorum; conditions: for Ryegrass, Italian plant response rating: preemergence; for Plant response rating, Ryegrass, Italian: Preemergence, 31 g ai/ha, scale 0 to 100, 0 no effect, 100 complete control
# How it was run: as §1
# waterhemp = assay: Test C postemergence; format: in vivo, Amaranthus rudis
# How it was run: as §1
# Heteranthera limosa = assay: Test B flooded paddy test; format: in vivo; conditions: Flood, 250 g ai/ha, 0 to 100 scale where 0 is no effect and 100 is complete control
# How it was run: (§2)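 Greenhouse flooded-pot test: compounds dosed into 3 cm standing water over 2-leaf plants, flood held constant. Rated visually after 13–15 days on 0–100 (complete control = 100); a dash marks no test result.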
# sedge, umbrella = assay: Test B flooded paddy test; format: in vivo, Cyperus difformis; conditions: Flood, 250 g ai/ha, 0 to 100 scale where 0 is no effect and 100 is complete control
# How it was run: as §2
# velvetleaf [1] = assay: Test C preemergence; format: in vivo, Abutilon theophrasti; conditions: for Velvetleaf plant response rating: preemergence; for Plant response rating, Velvetleaf: Preemergence, 31 g ai/ha, scale 0 to 100, 0 no effect, 100 complete control
# How it was run: as §1
# pigweed = assay: Test C postemergence; format: in vivo, Amaranthus retroflexus
# How it was run: as §1
# ragweed = assay: Test C preemergence; format: in vivo, Ambrosia elatior; conditions: for Ragweed plant response rating: preemergence; for Plant response rating, Ragweed: Preemergence, 31 g ai/ha, scale 0 to 100, 0 no effect, 100 complete control
# How it was run: as §1
# johnsongrass = assay: Test C preemergence; format: in vivo, Sorghum halepense; conditions: for Johnsongrass plant response rating: preemergence; for Plant response rating, Johnsongrass: Preemergence, 31 g ai/ha, scale 0 to 100, 0 no effect, 100 complete control
# How it was run: as §1
# wheat [2] = assay: Test A postemergence; format: in vivo, Triticum aestivum; conditions: 0 to 100 scale where 0 is no effect and 100 is complete control
# How it was run: (§3)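 Pre- and postemergence greenhouse screen. Soil: loam + sand. Spray carrier: solvent mixture, non-phytotoxic, with surfactant. Post timing at 1–2 leaves, height 2–10 cm. Readout: visual injury on a 0–100 scale roughly 10 days after application, untreated plants as reference.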
# blackgrass = assay: Test C preemergence; format: in vivo, Alopecurus myosuroides; conditions: for Blackgrass plant response rating: preemergence; for Plant response rating, Blackgrass: Preemergence, 31 g ai/ha, scale 0 to 100, 0 no effect, 100 complete control
# How it was run: as §1
# velvetleaf [3] = assay: Test A postemergence; format: in vivo, Abutilon theophrasti; conditions: 0 to 100 scale where 0 is no effect and 100 is complete control
# How it was run: as §3
# velvetleaf [4] = assay: Test A preemergence; format: in vivo, Abutilon theophrasti
# How it was run: as §3
# morningglory [5] = assay: Test A preemergence; format: in vivo, Ipomoea spp.
# How it was run: as §3
# wheat [6] = assay: Test A preemergence; format: in vivo, Triticum aestivum
# How it was run: as §3
# morningglory [7] = assay: Test A postemergence; format: in vivo, Ipomoea spp.; conditions: 0 to 100 scale where 0 is no effect and 100 is complete control
# How it was run: as §3
# [8] = 16 g ai/ha, scale 0 to 100 (0 no effect, 100 complete control)
# [9] = 62 g ai/ha, scale 0 (no effect) to 100 (complete control)
# [10] = 125 g ai/ha, scale 0 (no effect) to 100 (complete control)
# [11] = Postemergence, 31 g ai/ha, scale 0 to 100 (0 no effect, 100 complete control), 13 to 15 days
# [12] = Postemergence, 62 g ai/ha, scale 0 to 100 (0 no effect, 100 complete control)
# [13] = 31 g ai/ha, postemergence, visual rating, scale 0 to 100 (0 no effect, 100 complete control), 13 to 15 days
smiles,measurement,setting,value
FCc1cccc(Oc2ncc(Cl)cn2)c1-n1cc(Br)cn1 [Compound 83],Wheat plant response rating,"wheat, winter; [8]",0
same,Wheat plant response rating,"wheat, winter; [9]",0
same,Wheat plant response rating,"wheat, winter; [10]",0
same,"Plant response rating, Wheat","wheat, winter",0
same,"Ryegrass, Italian plant response rating",Italian ryegrass; [8],0
same,"Ryegrass, Italian plant response rating",Italian ryegrass; [9],30
same,"Ryegrass, Italian plant response rating",Italian ryegrass; [10],50
same,"Plant response rating, Ryegrass, Italian",Italian ryegrass,0
same,"Plant response rating (0 to 100), Waterhemp","waterhemp; 125 g ai/ha, postemergence",90
same,"Plant response rating, Waterhemp",waterhemp; [11],50
same,"Plant response rating, Waterhemp",waterhemp; [12],70
same,"Plant response rating, Ducksalad",Heteranthera limosa,45
same,"Plant response rating, Sedge, Umbrella","sedge, umbrella",45
same,Velvetleaf plant response rating,velvetleaf [1]; [8],60
same,Velvetleaf plant response rating,velvetleaf [1]; [9],100
same,Velvetleaf plant response rating,velvetleaf [1]; [10],100
same,"Plant response rating, Velvetleaf",velvetleaf [1],100
same,"Plant response rating (0 to 100), Pigweed","pigweed; 125 g ai/ha, postemergence",85
same,"Plant response rating, Pigweed",pigweed; [11],75
same,"Plant response rating, Pigweed",pigweed; [12],75
same,Ragweed plant response rating,ragweed; [8],0
same,Ragweed plant response rating,ragweed; [9],40
same,Ragweed plant response rating,ragweed; [10],45
same,"Plant response rating, Ragweed",ragweed,35
same,Johnsongrass plant response rating,johnsongrass; [8],0
same,Johnsongrass plant response rating,johnsongrass; [9],50
same,Johnsongrass plant response rating,johnsongrass; [10],85
same,"Plant response rating, Johnsongrass",johnsongrass,0
same,"Plant response rating, Wheat",wheat [2]; 125 g ai/ha,0
same,"Plant response rating, Wheat",wheat [2]; 500 g ai/ha,60
same,Blackgrass plant response rating,blackgrass; [8],0
same,Blackgrass plant response rating,blackgrass; [9],90
same,Blackgrass plant response rating,blackgrass; [10],85
same,"Plant response rating, Blackgrass",blackgrass,5
CCOc1cn(-c2c(Br)cccc2Oc2ncc(Cl)cn2)nn1 [Compound 84],Wheat plant response rating,"wheat, winter; [8]",0
same,Wheat plant response rating,"wheat, winter; [9]",0
same,Wheat plant response rating,"wheat, winter; [10]",0
same,"Plant response rating, Wheat","wheat, winter",0
same,"Ryegrass, Italian plant response rating",Italian ryegrass; [8],0
same,"Ryegrass, Italian plant response rating",Italian ryegrass; [9],5
same,"Ryegrass, Italian plant response rating",Italian ryegrass; [10],5
same,"Plant response rating, Ryegrass, Italian",Italian ryegrass,5
same,"Plant response rating (0 to 100), Waterhemp","waterhemp; 125 g ai/ha, postemergence",70
same,"Plant response rating, Waterhemp",waterhemp; [11],50
same,"Plant response rating, Waterhemp",waterhemp; [12],70
same,"Plant response rating, Ducksalad",Heteranthera limosa,50
same,"Plant response rating, Sedge, Umbrella","sedge, umbrella",30
same,Velvetleaf plant response rating,velvetleaf [1]; [8],50
same,Velvetleaf plant response rating,velvetleaf [1]; [9],85
same,Velvetleaf plant response rating,velvetleaf [1]; [10],100
same,"Plant response rating, Velvetleaf",velvetleaf [1],60
same,"Plant response rating (0 to 100), Pigweed","pigweed; 125 g ai/ha, postemergence",85
same,"Plant response rating, Pigweed",pigweed; [11],50
same,"Plant response rating, Pigweed",pigweed; [12],80
same,Ragweed plant response rating,ragweed; [8],0
same,Ragweed plant response rating,ragweed; [9],60
same,Ragweed plant response rating,ragweed; [10],85
same,"Plant response rating, Ragweed",ragweed,60
same,Johnsongrass plant response rating,johnsongrass; [8],0
same,Johnsongrass plant response rating,johnsongrass; [9],40
same,Johnsongrass plant response rating,johnsongrass; [10],85
same,"Plant response rating, Johnsongrass",johnsongrass,20
same,"Plant response rating, Wheat",wheat [2]; 125 g ai/ha,30
same,"Plant response rating, Wheat",wheat [2]; 500 g ai/ha,80
same,Blackgrass plant response rating,blackgrass; [8],0
same,Blackgrass plant response rating,blackgrass; [9],40
same,Blackgrass plant response rating,blackgrass; [10],85
same,"Plant response rating, Blackgrass",blackgrass,5
N#Cc1cccc(Oc2ncc(F)cn2)c1-n1cc(I)cn1 [Compound 86],Wheat plant response rating,"wheat, winter; [8]",0
same,Wheat plant response rating,"wheat, winter; [9]",0
same,Wheat plant response rating,"wheat, winter; [10]",35
same,"Plant response rating, Wheat","wheat, winter",0
same,"Ryegrass, Italian plant response rating",Italian ryegrass; [8],0
same,"Ryegrass, Italian plant response rating",Italian ryegrass; [9],30
same,"Ryegrass, Italian plant response rating",Italian ryegrass; [10],35
same,"Plant response rating, Ryegrass, Italian",Italian ryegrass,0
same,"Plant response rating (0 to 100), Waterhemp","waterhemp; 125 g ai/ha, postemergence",75
same,"Plant response rating, Waterhemp",waterhemp; [11],70
same,"Plant response rating, Waterhemp",waterhemp; [12],60
same,"Plant response rating, Ducksalad",Heteranthera limosa,75
same,"Plant response rating, Sedge, Umbrella","sedge, umbrella",65
same,Velvetleaf plant response rating,velvetleaf [1]; [8],20
same,Velvetleaf plant response rating,velvetleaf [1]; [9],100
same,Velvetleaf plant response rating,velvetleaf [1]; [10],100
same,"Plant response rating, Velvetleaf",velvetleaf [1],50
same,"Plant response rating (0 to 100), Pigweed","pigweed; 125 g ai/ha, postemergence",80
same,"Plant response rating, Pigweed",pigweed; [11],65
same,"Plant response rating, Pigweed",pigweed; [12],65
same,Ragweed plant response rating,ragweed; [8],5
same,Ragweed plant response rating,ragweed; [9],100
same,Ragweed plant response rating,ragweed; [10],100
same,"Plant response rating, Ragweed",ragweed,20
same,Johnsongrass plant response rating,johnsongrass; [8],10
same,Johnsongrass plant response rating,johnsongrass; [9],60
same,Johnsongrass plant response rating,johnsongrass; [10],95
same,"Plant response rating, Johnsongrass",johnsongrass,20
same,"Plant response rating, Wheat",wheat [2]; 125 g ai/ha,50
same,"Plant response rating, Wheat",wheat [2]; 500 g ai/ha,90
same,Blackgrass plant response rating,blackgrass; [8],0
same,Blackgrass plant response rating,blackgrass; [9],90
same,Blackgrass plant response rating,blackgrass; [10],98
same,"Plant response rating, Blackgrass",blackgrass,20
"Fc1cccc(Oc2ncc(Cl)cn2)c1-n1cc(Br)cn1 [Compound 178, 2-[2-(4-bromo-1H-pyrazol-1-yl)-3-fluorophenoxy]-5-chloropyrimidine]",Waterhemp plant response rating,waterhemp; [13],90
same,pest or weed control at 16 g/ha,"waterhemp; Amaranthus tuberculatus, post-emergence, 16 g ai/ha, postemergence, 0 is no effect, 100 is complete control, read-out: Plant response rating (0 to 100), Waterhemp",80%
same,pest or weed control at 125 g/ha,"waterhemp; Amaranthus tuberculatus, post-emergence, 125 g ai/ha, postemergence, visual rating, scale 0 to 100 (0 no effect, 100 complete control), read-out: Plant response rating, Waterhemp",100%
same,pest or weed control at 62 g/ha,"waterhemp; Amaranthus tuberculatus, post-emergence, Postemergence, 62 g ai/ha, scale 0 to 100 (0 no effect, 100 complete control), read-out: Plant response rating, Waterhemp",90%
same,pest or weed control at 250 g/ha,"Heteranthera limosa; Heteranthera limosa, read-out: Plant response rating, Ducksalad",0%
same,pest or weed control at 250 g/ha,"sedge, umbrella; Cyperus difformis, read-out: Plant response rating, Sedge, Umbrella",0%
same,Velvetleaf plant response rating,velvetleaf [3]; 125 g ai/ha,100
same,pest or weed control at 500 g/ha,"velvetleaf [3]; Abutilon theophrasti, post-emergence, 240 h, 500 g ai/ha, read-out: Plant response rating, Velvetleaf",100%
same,Velvetleaf plant response rating (0 to 100 scale),velvetleaf [4]; 125 g ai/ha,80
same,pest or weed control at 500 g/ha,"velvetleaf [4]; Abutilon theophrasti, pre-emergence, 240 h, 500 g ai/ha, 0 to 100 scale where 0 is no effect and 100 is complete control, read-out: Velvetleaf plant response rating",100%
same,Pigweed plant response rating,pigweed; [13],85
same,pest or weed control at 16 g/ha,"pigweed; Amaranthus retroflexus, post-emergence, 16 g ai/ha, postemergence, 0 is no effect, 100 is complete control, read-out: Plant response rating (0 to 100), Pigweed",80%
same,pest or weed control at 125 g/ha,"pigweed; Amaranthus retroflexus, post-emergence, 125 g ai/ha, postemergence, visual rating, scale 0 to 100 (0 no effect, 100 complete control), read-out: Plant response rating, Pigweed",98%
same,pest or weed control at 62 g/ha,"pigweed; Amaranthus retroflexus, post-emergence, Postemergence, 62 g ai/ha, scale 0 to 100 (0 no effect, 100 complete control), read-out: Plant response rating, Pigweed",95%
same,Morningglory plant response rating (0 to 100 scale),morningglory [5]; 125 g ai/ha,10
same,pest or weed control at 500 g/ha,"morningglory [5]; Ipomoea, pre-emergence, 240 h, 500 g ai/ha, 0 to 100 scale where 0 is no effect and 100 is complete control, read-out: Morningglory plant response rating",90%
same,Wheat plant response rating (0 to 100 scale),wheat [6]; 125 g ai/ha,0
same,plant injury at 500 g/ha,"wheat [6]; Triticum aestivum, pre-emergence, 240 h, 500 g ai/ha, 0 to 100 scale where 0 is no effect and 100 is complete control, read-out: Wheat plant response rating",40%
same,plant injury at 125 g/ha,"wheat [2]; Triticum aestivum, post-emergence, 240 h, 125 g ai/ha, read-out: Wheat plant response rating",40%
same,plant injury at 500 g/ha,"wheat [2]; Triticum aestivum, post-emergence, 240 h, 500 g ai/ha, read-out: Plant response rating, Wheat",80%
same,Morningglory plant response rating,morningglory [7]; 125 g ai/ha,70
same,pest or weed control at 500 g/ha,"morningglory [7]; Ipomoea, post-emergence, 240 h, 500 g ai/ha, read-out: Plant response rating, Morningglory",100%
